From patent US20260297081A1, “COMPOUNDS AND METHODS OF TREATING CANCERS” (Cullgen Inc., priority 2023, published 2026)

tested on: MCF7 cells; assay: Anti-proliferation (viability) of MCF7 cells (Table 7, FIG. 2B); assay type: cell-based; conditions: Homo sapiens, MCF7, MCF7 cells, 3-6 days, 10-point serial dilution; read-out: GI IC50 in MCF-7

**Q.** With CNc1ccc(C(=O)Nc2ccc(N(C)C)nn2)c(NC2CC(C(=O)NC3CC4(CCN(c5ccc(Nc6ncc7c(C)c(C(C)=O)c(=O)n(C8CCCC8)c7n6)nc5)CC4)C3)C2)n1 (stereo not drawn) [CPD-375, 2-((3-((7-(6-((6-acetyl-8-cyclopentyl-5-methyl-7-oxo-7,8-dihydropyrido[2,3-d]pyrimidin-2-yl)amino)pyridin-3-yl)-7-azaspiro[3.5]nonan-2-yl)carbamoyl)cyclobutyl)amino)-N-(6-(dimethylamino)pyridazin-3-yl)-6-(methylamino)nicotinamide] as the compound, how does the IC50 read?
**A.** Its IC50 is over 100 nM.

**Q.** How did the IC50 turn out when CNc1ccc(C(=O)Nc2cn(C)c(C3CC3)n2)c(NC2CC3(C2)CN(C(=O)C2CC4(CCN(c5ccc(Nc6ncc7c(C)c(C(C)=O)c(=O)n(C8CCCC8)c7n6)nc5)CC4)C2)C3)n1 (stereo not drawn) [CPD-321, 2-((2-(7-(6-((6-acetyl-8-cyclopentyl-5-methyl-7-oxo-7,8-dihydropyrido[2,3-d]pyrimidin-2-yl)amino)pyridin-3-yl)-7-azaspiro[3.5]nonane-2-carbonyl)-2-azaspiro[3.3]heptan-6-yl)amino)-N-(2-cyclopropyl-1-methyl-1H-imidazol-4-yl)-6-(methylamino)nicotinamide] was run?
**A.** The IC50 was over 100 nM.

**Q.** CNc1ccc(C(=O)Nc2ccc(N(C)C)nn2)c(NC2CC3(C2)CC(C(=O)N2CC4(CCN(c5ccc(Nc6ncc7c(C)c(C(C)=O)c(=O)n(C8CCCC8)c7n6)nc5)CC4)C2)C3)n1 (stereo not drawn) [CPD-363] was tested. Which IC50 did it give?
**A.** Its IC50 is over 100 nM.

**Q.** Which IC50 does the source give for CC(=O)c1c(C)c2cnc(Nc3ccc(N4CCC(NCC(=O)N5CCC(Nc6nc(NC(C)C)ccc6C(=O)Nc6ccc(N(C)C)nn6)C5)CC4)cn3)nc2n(C2CCCC2)c1=O (stereo not drawn) [CPD-372, 2-((1-((1-(6-((6-acetyl-8-cyclopentyl-5-methyl-7-oxo-7,8-dihydropyrido[2,3-d]pyrimidin-2-yl)amino)pyridin-3-yl)piperidin-4-yl)glycyl)pyrrolidin-3-yl)amino)-N-(6-(dimethylamino)pyridazin-3-yl)-6-(isopropylamino)nicotinamide] here?
**A.** The IC50 was over 100 nM.

**Q.** How did the IC50 turn out when CC(=O)c1c(C)c2cnc(Nc3ccc(N4CCN(C5(C(=O)NC6CC7(C6)CC(Nc6nc(NC(C)C)ccc6C(=O)Nc6cn(C)c(C8CC8)n6)C7)CC5)CC4)cn3)nc2n(C2CCCC2)c1=O (stereo not drawn) [CPD-366, 2-((6-(1-(4-(6-((6-acetyl-8-cyclopentyl-5-methyl-7-oxo-7,8-dihydropyrido[2,3-d]pyrimidin-2-yl)amino)pyridin-3-yl)piperazin-1-yl)cyclopropane-1-carboxamido)spiro[3.3]heptan-2-yl)amino)-N-(2-cyclopropyl-1-methyl-1H-imidazol-4-yl)-6-(isopropylamino)nicotinamide] was run?
**A.** Its IC50 is over 100 nM.

**Q.** CNc1ccc(C(=O)Nc2cc(C)n(C3CC3)n2)c(NC2CC3(CC(NC(=O)CN4CCN(c5ccc(Nc6ncc7c(C)c(C(C)=O)c(=O)n(C8CCCC8)c7n6)nc5)CC4)C3)C2)n1 (stereo not drawn) [CPD-315, 2-((6-(2-(4-(6-((6-acetyl-8-cyclopentyl-5-methyl-7-oxo-7,8-dihydropyrido[2,3-d]pyrimidin-2-yl)amino)pyridin-3-yl)piperazin-1-yl)acetamido)spiro[3.3]heptan-2-yl)amino)-N-(1-cyclopropyl-5-methyl-1H-pyrazol-3-yl)-6-(methylamino)nicotinamide] was tested. Which IC50 did it give?
**A.** The IC50 was over 100 nM.

**Q.** How did the IC50 turn out when CNc1ccc(C(=O)Nc2ccc(N(C)C)nn2)c(NC2CC3(C2)CC(C(=O)NC2CC4(CCN(c5ccc(Nc6ncc7c(C)c(C(C)=O)c(=O)n(C8CCCC8)c7n6)nc5)CC4)C2)C3)n1 (stereo not drawn) [CPD-374, 2-((6-((7-(6-((6-acetyl-8-cyclopentyl-5-methyl-7-oxo-7,8-dihydropyrido[2,3-d]pyrimidin-2-yl)amino)pyridin-3-yl)-7-azaspiro[3.5]nonan-2-yl)carbamoyl)spiro[3.3]heptan-2-yl)amino)-N-(6-(dimethylamino)pyridazin-3-yl)-6-(methylamino)nicotinamide] was run?
**A.** Its IC50 is over 100 nM.

**Q.** With CNc1ccc(C(=O)Nc2ccc(N(C)C)nn2)c(NC2CCC(C(=O)N3CCC4(CC3)CCN(c3ccc(Nc5ncc6c(C)c(C(C)=O)c(=O)n(C7CCCC7)c6n5)nc3)CC4)CC2)n1 (stereo not drawn) [CPD-350, 2-((4-(9-(6-((6-acetyl-8-cyclopentyl-5-methyl-7-oxo-7,8-dihydropyrido[2,3-d]pyrimidin-2-yl)amino)pyridin-3-yl)-3,9-diazaspiro[5.5]undecane-3-carbonyl)cyclohexyl)amino)-N-(6-(dimethylamino)pyridazin-3-yl)-6-(methylamino)nicotinamide] as the compound, how does the IC50 read?
**A.** The IC50 was over 100 nM.

**Q.** CC(=O)c1c(C)c2cnc(Nc3ccc(N4CCC(N5CC(C(=O)N6CC7(CC(Nc8nc(NC(C)C)ccc8C(=O)Nc8ccc(N(C)C)nn8)C7)C6)C5)CC4)cn3)nc2n(C2CCCC2)c1=O [CPD-391, 2-((2-(1-(1-(6-((6-acetyl-8-cyclopentyl-5-methyl-7-oxo-7,8-dihydropyrido[2,3-d]pyrimidin-2-yl)amino)pyridin-3-yl)piperidin-4-yl)azetidine-3-carbonyl)-2-azaspiro[3.3]heptan-6-yl)amino)-N-(6-(dimethylamino)pyridazin-3-yl)-6-(isopropylamino)nicotinamide] was tested. Which IC50 did it give?
**A.** Its IC50 is over 100 nM.

**Q.** For [2H]C([2H])([2H])Nc1ccc(C(=O)Nc2ccc(N(C)C)nn2)c(NC2CCN(C(=O)CN3CCC4(CCN(c5ccc(Nc6ncc7c(C)c(C(C)=O)c(=O)n(C8CCCC8)c7n6)nc5)C4)C3)CC2)n1 (stereo not drawn) [CPD-441, 2-((1-(2-(7-(6-((6-acetyl-8-cyclopentyl-5-methyl-7-oxo-7,8-dihydropyrido[2,3-d]pyrimidin-2-yl)amino)pyridin-3-yl)-2,7-diazaspiro[4.4]nonan-2-yl)acetyl)piperidin-4-yl)amino)-N-(6-(dimethylamino)pyridazin-3-yl)-6-((methyl-d3)amino)nicotinamide], which IC50 is on record?
**A.** Its IC50 is under 50 nM.

**Q.** For [2H]C([2H])([2H])Nc1ccc(C(=O)Nc2cc(C)on2)c(NC2CCC(NC(=O)CN3CCN(c4ccc(Nc5ncc6c(C)c(C(C)=O)c(=O)n(C7CCCC7)c6n5)nc4)CC3)C2)n1 (stereo not drawn) [CPD-294, 2-((3-(2-(4-(6-((6-acetyl-8-cyclopentyl-5-methyl-7-oxo-7,8-dihydropyrido[2,3-d]pyrimidin-2-yl)amino)pyridin-3-yl)piperazin-1-yl)acetamido)cyclopentyl)amino)-6-((methyl-d3)amino)-N-(5-methylisoxazol-3-yl)nicotinamide], which IC50 is on record?
**A.** The IC50 was over 100 nM.

**Q.** With CC(=O)c1c(C)c2cnc(Nc3ccc(N4CCC5(CC4)CC5C(=O)N4CC5(CC(Nc6nc(NC(C)C)ccc6C(=O)Nc6cn(C)c(C7CC7)n6)C5)C4)cn3)nc2n(C2CCCC2)c1=O (stereo not drawn) [CPD-412, 2-((2-(6-(6-((6-acetyl-8-cyclopentyl-5-methyl-7-oxo-7,8-dihydropyrido[2,3-d]pyrimidin-2-yl)amino)pyridin-3-yl)-6-azaspiro[2.5]octane-1-carbonyl)-2-azaspiro[3.3]heptan-6-yl)amino)-N-(2-cyclopropyl-1-methyl-1H-imidazol-4-yl)-6-(isopropylamino)nicotinamide] as the compound, how does the IC50 read?
**A.** The IC50 was over 100 nM.

**Q.** How did the IC50 turn out when CC(=O)c1c(C)c2cnc(Nc3ccc(N4CCN(CC(=O)NCCCCCNc5nc6[nH]ccc6cc5C(=O)Nc5ccc(N(C)C)nn5)CC4)cn3)nc2n(C2CCCC2)c1=O [CPD-251, 6-((5-(2-(4-(6-((6-acetyl-8-cyclopentyl-5-methyl-7-oxo-7,8-dihydropyrido[2,3-d]pyrimidin-2-yl)amino)pyridin-3-yl)piperazin-1-yl)acetamido)pentyl)amino)-N-(6-(dimethylamino)pyridazin-3-yl)-1H-pyrrolo[2,3-b]pyridine-5-carboxamide] was run?
**A.** Its IC50 is over 100 nM.

**Q.** With CC(=O)c1c(C)c2cnc(Nc3ccc(N4CCC5(CC4)CC5C(=O)N4CC5(CC(Nc6nc(NC(C)C)ccc6C(=O)Nc6cc(C)n(C)n6)C5)C4)cn3)nc2n(C2CCCC2)c1=O (stereo not drawn) [CPD-415, 2-((2-(6-(6-((6-acetyl-8-cyclopentyl-5-methyl-7-oxo-7,8-dihydropyrido[2,3-d]pyrimidin-2-yl)amino)pyridin-3-yl)-6-azaspiro[2.5]octane-1-carbonyl)-2-azaspiro[3.3]heptan-6-yl)amino)-N-(1,5-dimethyl-1H-pyrazol-3-yl)-6-(isopropylamino)nicotinamide] as the compound, how does the IC50 read?
**A.** Its IC50 is under 50 nM.

**Q.** How did the IC50 turn out when CNc1ccc(C(=O)Nc2ccc(N(C)C)nn2)c(NC2CCN(C(=O)CNC3CCN(c4ccc(Nc5ncc6c(C)c(C(C)=O)c(=O)n(C7CCCC7)c6n5)nc4)CC3)CC2)n1 [CPD-299, 2-((1-((1-(6-((6-acetyl-8-cyclopentyl-5-methyl-7-oxo-7,8-dihydropyrido[2,3-d]pyrimidin-2-yl)amino)pyridin-3-yl)piperidin-4-yl)glycyl)piperidin-4-yl)amino)-N-(6-(dimethylamino)pyridazin-3-yl)-6-(methylamino)nicotinamide] was run?
**A.** The IC50 was under 50 nM.

**Q.** How did the IC50 turn out when CC(=O)c1c(C)c2cnc(Nc3ccc(N4CCN(CC(=O)NC5CCC(Nc6nc(NC(C)C)ccc6C(=O)Nc6cc(C)on6)C5)CC4)cn3)nc2n(C2CCCC2)c1=O (stereo not drawn) [CPD-295, 2-((3-(2-(4-(6-((6-acetyl-8-cyclopentyl-5-methyl-7-oxo-7,8-dihydropyrido[2,3-d]pyrimidin-2-yl)amino)pyridin-3-yl)piperazin-1-yl)acetamido)cyclopentyl)amino)-6-(isopropylamino)-N-(5-methylisoxazol-3-yl)nicotinamide] was run?
**A.** Its IC50 is over 100 nM.

**Q.** How did the IC50 turn out when CC(=O)c1c(C)c2cnc(Nc3ccc(N4CCN(C(C)CC(=O)N5CC(Nc6nc(NC(C)C)ccc6C(=O)Nc6ccc(N(C)C)nn6)C5)CC4)cn3)nc2n(C2CCCC2)c1=O (stereo not drawn) [CPD-355, 2-((1-(3-(4-(6-((6-acetyl-8-cyclopentyl-5-methyl-7-oxo-7,8-dihydropyrido[2,3-d]pyrimidin-2-yl)amino)pyridin-3-yl)piperazin-1-yl)butanoyl)azetidin-3-yl)amino)-N-(6-(dimethylamino)pyridazin-3-yl)-6-(isopropylamino)nicotinamide] was run?
**A.** The IC50 was 50 to 100 nM.

**Q.** How did the IC50 turn out when CC(=O)c1c(C)c2cnc(Nc3ccc(N4CCC(N(C)CC(=O)N5CCC(Nc6nc(NC(C)C)ccc6C(=O)Nc6ccc(N(C)C)nn6)C5)CC4)cn3)nc2n(C2CCCC2)c1=O (stereo not drawn) [CPD-426, 2-((1-(N-(1-(6-((6-acetyl-8-cyclopentyl-5-methyl-7-oxo-7,8-dihydropyrido[2,3-d]pyrimidin-2-yl)amino)pyridin-3-yl)piperidin-4-yl)-N-methylglycyl)pyrrolidin-3-yl)amino)-N-(6-(dimethylamino)pyridazin-3-yl)-6-(isopropylamino)nicotinamide] was run?
**A.** Its IC50 is under 50 nM.
